Experimental findings from PMC5439949, “Structural features of PhoX, one of the phosphate-binding proteins from Pho regulon of Xanthomonas citri” (PLoS ONE, 2017) are described below.

The structures appear in SMILES notation.

For one assay, the target named is PstS (Xanthomonas citri, UniProt A0AAI8ESD8). Description: thermal unfolding by CD at […] nm. In kind it is binding. Particulars: Tm without to with 30 μM NaH2PO4; 2 μM protein, 10 mM Tris-HCl pH 8.0, 20-95 °C.
A further assay deals with PhoX (Xanthomonas citri, UniProt A0AAI8ERC0). Description: thermal unfolding by CD at […] nm. In kind it is binding. Particulars: Tm without to with 30 μM NaH2PO4; 2 μM protein, 10 mM Tris-HCl pH 8.0, 20-95 °C.

The term Tm denotes the temperature at which the thermal transition is half complete.

PhoX, sequence (A0AAI8ERC0 entry or part of it): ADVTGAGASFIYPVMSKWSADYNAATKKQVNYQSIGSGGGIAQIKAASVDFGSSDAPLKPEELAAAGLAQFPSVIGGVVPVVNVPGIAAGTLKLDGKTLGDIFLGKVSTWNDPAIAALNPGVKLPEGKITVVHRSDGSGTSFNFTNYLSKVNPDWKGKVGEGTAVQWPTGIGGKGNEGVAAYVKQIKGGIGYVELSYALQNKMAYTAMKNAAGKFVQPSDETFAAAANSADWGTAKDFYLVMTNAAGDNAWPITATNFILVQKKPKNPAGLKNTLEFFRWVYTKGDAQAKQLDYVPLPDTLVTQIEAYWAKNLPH
PstS, sequence (A0AAI8ESD8 entry or part of it): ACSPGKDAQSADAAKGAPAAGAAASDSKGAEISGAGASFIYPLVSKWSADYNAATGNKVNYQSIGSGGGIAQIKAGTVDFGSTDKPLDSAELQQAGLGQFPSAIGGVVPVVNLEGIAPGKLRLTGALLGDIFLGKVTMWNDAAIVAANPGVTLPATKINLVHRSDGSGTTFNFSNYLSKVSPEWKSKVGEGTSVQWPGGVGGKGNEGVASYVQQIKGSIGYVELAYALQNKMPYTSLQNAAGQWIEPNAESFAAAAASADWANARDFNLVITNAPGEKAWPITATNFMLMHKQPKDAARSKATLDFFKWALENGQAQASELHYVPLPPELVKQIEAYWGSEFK

For `O=P(O)(O)O` [phosphate], the melting temperature (Tm) lay in the range of 71 to 78 °C on PstS and 64 to 77 °C on PhoX.
